Test results: ChEMBL document CHEMBL1128830, “Synthesis and antibacterial activity of FR21818, a new, potent 1-methylcarbapenem” (1995)
Converted amounts (≈) assume the structure as drawn.

Assays:
Escherichia coli = assay: Minimum inhibitory concentration required for antibacterial activity against Escherichia coli NIHJ JC-2; assay type: functional
Mus musculus = assay: […] percent urinary recovery in mice after subcutaneous administration at a dose of 20 mg/Kg; assay type: functional, organism-based; details: Urine
Staphylococcus aureus [1] = assay: Minimum inhibitory concentration required for antibacterial activity against Staphylococcus aureus 209P JC-1; assay type: functional
Staphylococcus aureus [2] = assay: Minimum inhibitory concentration required for antibacterial activity against methicillin-resistant Staphylococcus aureus 3004; assay type: functional
Proteus vulgaris = assay: Minimum inhibitory concentration required for antibacterial activity against Proteus vulgaris IAM 1025; assay type: functional
[3] = target: T1, Dipeptidase 1 (Homo sapiens) (UniProt P16444); assay: In vitro renal dehydropeptidase I (DHP-I) stability relative to meropenem
T1 sequence (whole entry): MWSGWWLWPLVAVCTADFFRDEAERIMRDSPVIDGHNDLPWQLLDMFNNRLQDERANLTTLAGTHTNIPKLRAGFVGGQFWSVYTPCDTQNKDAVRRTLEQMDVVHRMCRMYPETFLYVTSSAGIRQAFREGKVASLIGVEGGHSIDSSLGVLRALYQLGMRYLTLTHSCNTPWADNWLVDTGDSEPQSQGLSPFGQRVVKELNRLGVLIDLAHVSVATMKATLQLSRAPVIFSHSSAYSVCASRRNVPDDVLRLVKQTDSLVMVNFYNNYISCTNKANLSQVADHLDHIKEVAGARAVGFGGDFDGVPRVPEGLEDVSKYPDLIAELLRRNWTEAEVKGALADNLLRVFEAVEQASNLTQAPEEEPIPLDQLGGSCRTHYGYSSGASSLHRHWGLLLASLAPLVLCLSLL

Pseudomonas aeruginosa = assay: Minimum inhibitory concentration required for antibacterial activity against Pseudomonas aeruginosa 26; assay type: functional

| SMILES | MIC (Escherichia coli) [µg/mL] | Recovery (Mus musculus) [%] | MIC (Staphylococcus aureus [1]) [µg/mL] | MIC (Staphylococcus aureus [2]) [µg/mL] | MIC (Proteus vulgaris) [µg/mL] | Stability [3] [%] | MIC (Pseudomonas aeruginosa) [µg/mL] |
| --- | --- | --- | --- | --- | --- | --- | --- |
| C[C@@H](O)[C@H]1C(=O)N2C(C(=O)O)=C(S[C@@H]3CN[C@H](Cc4cc[n+](CCO)n4C)C3)[C@H](C)[C@H]12.[Cl-] | 0.2 | 68.9 | 0.05 | 6.25 | 1.56 | 26 | 0.2 |
| C[C@@H](O)[C@H]1C(=O)N2C(C(=O)[O-])=C(SC3Cn4cnc[n+]4C3)[C@H](C)[C@H]12 (stereo partly specified) [BIAPENEM] | 0.39 (≈ 1.11 µM) | 70.7 | 0.1 (≈ 0.285 µM) | 25 (≈ 71.3 µM) | 3.13 (≈ 8.93 µM) | 15.4 | 0.2 (≈ 0.571 µM) |
| C[C@@H](O)[C@H]1C(=O)N2C(C(=O)O)=C(S[C@@H]3CN[C@H](C(=O)N(C)C)C3)[C@H](C)[C@H]12 [MEROPENEM] | < 0.025 | 25 | 0.1 (≈ 0.261 µM) | 25 (≈ 65.2 µM) | 0.1 (≈ 0.261 µM) | 100 | 0.2 (≈ 0.522 µM) |
